Measured values reported in patent publication US8198323B2, “Curcumin analogues and uses thereof” (The University of North Carolina at Chapel Hill, priority 2004, dated 2012).
Positions count from the first letter of the chain named. “Also recorded” adds a separate entry of the source.

Assays:
Format in all cases: cell-based
[1] = biological target: T1, wild type AR (Homo sapiens, UniProt P10275); assay: AR transactivation assay (MMTV-luciferase), PC-3 cells transfected with wild-type AR; parameters: expressed in transfected cells; host or cells: PC-3; details: PC-3 cell assay system; FIG. 3A
T1 sequence (P10275 1-920): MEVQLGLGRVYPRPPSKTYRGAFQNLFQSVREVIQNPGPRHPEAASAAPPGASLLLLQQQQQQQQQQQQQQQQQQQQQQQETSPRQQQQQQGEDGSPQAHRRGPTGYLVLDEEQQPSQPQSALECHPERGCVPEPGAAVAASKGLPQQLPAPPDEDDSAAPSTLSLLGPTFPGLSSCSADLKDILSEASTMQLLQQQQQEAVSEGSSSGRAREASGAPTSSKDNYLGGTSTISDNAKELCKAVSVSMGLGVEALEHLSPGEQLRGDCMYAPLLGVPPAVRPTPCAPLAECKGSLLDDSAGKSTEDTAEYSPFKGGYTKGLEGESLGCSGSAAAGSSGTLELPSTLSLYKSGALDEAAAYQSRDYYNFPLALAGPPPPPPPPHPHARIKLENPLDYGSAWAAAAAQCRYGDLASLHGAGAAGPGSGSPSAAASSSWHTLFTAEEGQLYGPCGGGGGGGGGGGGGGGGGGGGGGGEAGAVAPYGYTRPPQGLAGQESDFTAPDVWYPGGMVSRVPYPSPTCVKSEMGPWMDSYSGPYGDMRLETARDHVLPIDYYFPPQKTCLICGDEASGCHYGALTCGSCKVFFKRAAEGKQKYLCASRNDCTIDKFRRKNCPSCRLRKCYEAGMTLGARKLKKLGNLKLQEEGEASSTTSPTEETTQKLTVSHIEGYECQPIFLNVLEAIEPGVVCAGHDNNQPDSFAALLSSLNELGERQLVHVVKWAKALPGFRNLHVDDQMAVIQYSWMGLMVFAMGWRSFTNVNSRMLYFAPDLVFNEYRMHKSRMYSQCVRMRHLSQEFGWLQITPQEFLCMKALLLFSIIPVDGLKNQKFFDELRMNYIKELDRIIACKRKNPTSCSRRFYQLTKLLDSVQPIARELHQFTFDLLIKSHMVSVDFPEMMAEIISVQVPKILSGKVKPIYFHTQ
Method: (§1) Cell Culture and Transfections. Human prostate cancer DU145 and PC-3 cells were maintained in Dulbecco's minimum essential medium (DMEM) containing penicillin (25 units/mL), streptomycin (25 μg/mL), and 10% fetal calf serum (FCS). For AR transactivation assay, PC-3 cells were transfected with an AR expression plasmid and reporter gene. Because of a low content of endogenous AR coactivators, DU-145 cells were transfected with expression plasmids for AR and ARA70, and reporter gene.
Transfections were performed using the SuperFect kit according to manufacturer's procedures (Qiagen, Chatsworth, Calif.). Briefly, 1×10^5 cells were plated on 35-mm dishes 24 h before transfection, and then a reporter plasmid, MMTV-Luciferase, which contains MMTV-LTR promoter and AR-binding element, was co-transfected with an AR expression plasmid (wild type or mutant), or pSG5ARA70. PRL-TK was used as an internal control for transfection efficiency. The total amount of DNA was adjusted to […] with pSG5 in all transcriptional activation assays. After a 2 h transfection, the medium was changed to DMEM-10% charcoal stripped serum medium, and 14-16 h later, the cells were treated with DHT, antiandrogen, or test compounds. After another 14-16 h, the cells were harvested and tested for luciferase activity in luciferase assays (Promega, Dual Luciferase Assay System, Madison, Wis.). […]

[2] = biological target: T1, wild type AR; assay: AR transactivation assay (MMTV-luciferase), DU-145 cells transfected with wild-type AR and ARA70; parameters: expressed in transfected cells; host or cells: DU-145; details: FIG. 3C; for antiandrogen activity (in words): DU-145 cells, wild-type AR and ARA70; for reduction (antiandrogen activity): DU-145 cells transfected with wild-type AR and ARA70
Method: as §1
(§2) Transfections were performed using the SuperFect kit according to manufacturer's procedures (Qiagen, Chatsworth, Calif.). Briefly, 1×10^5 cells were plated on 35-mm dishes 24 h before transfection, and then a reporter plasmid, MMTV-Luciferase, which contains MMTV-LTR promoter and AR-binding element, was co-transfected with an AR expression plasmid (wild type or mutant), or pSG5ARA70. PRL-TK was used as an internal control for transfection efficiency. The total amount of DNA was adjusted to […] with pSG5 in all transcriptional activation assays. After a 2 h transfection, the medium was changed to DMEM-10% charcoal stripped serum medium, and 14-16 h later, the cells were treated with DHT, antiandrogen, or test compounds. After another 14-16 h, the cells were harvested and tested for luciferase activity in luciferase assays (Promega, Dual Luciferase Assay System, Madison, Wis.). Data were expressed in relative luciferase activity as compared to an internal luciferase positive control.

[3] = biological target: T2, mutant LNCaP AR (Homo sapiens, UniProt P10275, T878A); assay: AR transactivation assay (MMTV-luciferase), DU-145 cells transfected with mutant LNCaP AR and ARA70; details: FIG. 3B
T2 construct: expressed in transfected cells; host or cells: DU-145
T2 sequence (P10275 1-920 T878A): T1 sequence (P10275 1-920) with T878A
Method: Cell Culture and Transfections. Human prostate cancer DU145 and PC-3 cells were maintained in Dulbecco's minimum essential medium (DMEM) containing penicillin (25 units/mL), streptomycin (25 μg/mL), and 10% fetal calf serum (FCS). For AR transactivation assay, PC-3 cells were transfected with an AR expression plasmid and reporter gene. Because of a low content of endogenous AR coactivators, DU-145 cells were transfected with expression plasmids for AR and ARA70, and reporter gene. The conditions were followed as previously described in Miyamoto et al., Proc. Natl. Acad. Sci. USA, 95, 7379-7384 (1998), with minor modifications.
as §2

[4] = biological target: T3, mutant AR in LNCaP cells (Homo sapiens, UniProt P10275, T878A); assay: LNCaP AR transactivation assay / LNCaP cell growth assay (Table 2); details: 1 nM DHT, symbols 0, +, ++ not defined
T3 construct: LNCaP cells, which express a clinically relevant mutant AR; endogenous in cells; host or cells: LNCaP
T3 sequence (P10275 1-920 T878A): T1 sequence (P10275 1-920) with T878A
Method: (§3) Cell culture and transfection—Human prostate cancer LNCaP and PC-3 cells were maintained in RPMI medium and Dulbecco's minimum essential medium (DMEM), respectively. Both media were strengthened with penicillin (25 units/mL), streptomycin (25 μg/mL), and 10% fetal calf serum. Androgen receptor transactivation assay, an androgen-dependent reporter gene transcription test, was employed as the primary screening for potential antiandrogen identification. This assay was first performed in LNCaP cells, which express a clinically relevant mutant AR. Once potential compounds were indicated by LNCaP AR transactivation assay, they were re-examined for their potential activity against wild type AR. Wild type AR transactivation assay was performed in PC-3 host cells, which lack an endogenous, functional AR.
(§4) Our previously described conditions for cell transfection were followed (Ohtsu et al, J Medicinal Chem 45: 5037-5042 (2002); Ohtsu et al., Bioorganic & Medicinal Chemistry 11:5083-5090 (2003)). In brief, cells were plated in 24- or 48-well tissue culture dishes twenty-four (PC-3 cells) or forty-eight (LNCaP cells) hours prior to transfection. Subsequently, LNCaP cells were transfected with a reporter gene, MMTV-luciferase, which contains MMTV-LTR promoter and androgen receptor binding element, and PRL-SV40, which served as an internal control for transfection efficiency. PC-3 cells were transfected with a wild type AR expression plasmid, pSG5AR, in addition to the above-mentioned MMTV-luciferase reporter gene and PRL-SV40 internal control. SuperFect (Qiagen, Chatsworth, Calif.) was employed as the transfection reagent following manufacturer's recommendations. At the end of a five-hour transfection, the medium was changed to DMEM or RPMI supplemented with 10% charcoal dextran-stripped, androgen-depleted serum. Twenty-four hours later, the cells were treated with 1 nM of DHT and/or test compounds at the designated concentration for another twenty-four hours. The cells were harvested for luciferase activity assay using Dual Luciferase Assay System (Promega, Madison, Wis.). The derived data were expressed as relative luciferase activity normalized to the internal luciferase control. DHT incubation induced a marked expression of reporter gene.
LNCaP cell growth assay thus was used as an alternative to confirm potential antiandrogens identified by the above-mentioned AR transactivation assay. An MTT analysis, relying upon the conversion of a colorless substrate to reduced tetrazolium by the mitochondrial dehydrogenase, was used. The experimental conditions were detailed elsewhere (Ohtsu et al., Bioorganic & Medicinal Chemistry 11:5083-5090 (2003)). Briefly, cells were plated in 96-well tissue culture plates and then incubated for 5 consecutive days in the presence of 1 nM of DHT and/or test compounds in 10% charcoal dextran-stripped serum-containing RPMI. At the end of incubation, the cells were given MTT (5 mg/ml in PBS) for three hours at 37° C. The resultant precipitate was dissolved in a lysis buffer and then quantitated at a wavelength of 595 nm using a microplate reader. To ensure the accuracy of data derived from the MTT analysis, cell count was performed using duplicate samples.

[5] = biological target: T1, wild type AR; assay: Wild type AR transactivation assay in PC-3 host cells (Table 2); parameters: expressed in transfected cells; host or cells: PC-3; details: PC-3 cells transfected with wild type AR, 1 nM DHT; symbols 0, +, ++ not defined
Method: as §3, §4

In the case of `COc1cc(/C=C/C(=O)/C=C(O)/C=C/c2ccc(O)c(OC)c2)ccc1O` [Compound 1, Curcumin], the “antagonistic activity against the AR (in words)” value (shortened to “antagonistic activity”) [1] is reported as “inactive”, the “antiandrogen activity (in words)” value [2] is reported as “inactive; also recorded: not active” and the “antagonistic activity” value [3] is reported as “inactive”.

With `COc1cc(C=CC(=O)CC(=O)C=Cc2ccc(OC)c(OC)c2)ccc1O` [Compound 9, Monomethylcurcumin] the “antagonistic activity” value [3] was “significantly less active than 4”.

In the case of `COC(=O)COc1ccc(C=CC(=O)CC(=O)C=Cc2ccc(OCC(=O)OC)c(OC)c2)cc1OC` [Compound 20], the “reduction (antiandrogen activity)” value [2] is reported as 54% and the “antiandrogen activity (in words)” value [2] is reported as “comparable or more potent antiandrogen activity than HF”.

For `CCOC(=O)CCC(C(=O)C=Cc1ccc(O)c(OC)c1)C(=O)C=Cc1ccc(O)c(OC)c1` (centres unmarked) [Compound 22], the “reduction (antiandrogen activity)” value [2] was 53.8% and the “antiandrogen activity (in words)” value [2] was “comparable or more potent antiandrogen activity than HF”.

In the case of `COc1ccc(C(=O)CC(=O)c2ccc(OC)c(OC)c2)cc1OC` [Compound 39, 1,3-bis(3,4-dimethoxyphenyl)-1,3-propandione], the “antagonistic activity” value [1] is reported as “less active than 4”, the “antiandrogen activity (in words)” value [2] is reported as “comparable or more potent antiandrogen activity than HF” and the “antagonistic activity” value [3] is reported as “less active than 4”.

With `COc1ccc(/C=C/C(=O)/C=C(O)/C=C/c2ccc(OC)cc2F)c(F)c1` [HOJ-9] the “anti-AR activity, LNCaP” value [4] was 0.

`O=C(/C=C(O)/C=C/c1ccc(O)o1)/C=C/c1ccc(O)o1` [LL-7] was tested, and the “anti-AR activity, wrAR/PC3” value [5] was 0.

For `COc1cc(/C=C/C(=O)/C=C/c2ccc(O)c(OC)c2)ccc1O` [LL-10], the “anti-AR activity, wrAR/PC3” value [5] was 0.

For `COc1cc(/C=C/C(O)=C/C(=O)/C=C/c2ccc(OC)c(OC)c2)ccc1O` [LL-17], the “anti-AR activity, LNCaP” value [4] was 0.

For `COc1cc(/C=C/C(O)=C/C(=O)/C=C/c2ccc(O)cc2)ccc1O` [LL-18], the “anti-AR activity, LNCaP” value [4] was 0.

In the case of `COc1ccc(/C=C/C(=O)/C=C(O)/C=C/c2ccc(OC)c(O)c2)cc1O` [LL-27B], the “anti-AR activity, LNCaP” value [4] is reported as 0.

`COc1ccc(/C=C/C(=O)/C=C(O)/C=C/c2ccc(OC)c(OC)c2OC)c(OC)c1OC` [LL-32B] was tested, and the “anti-AR activity, LNCaP” value [4] was 0.

For `COc1ccc(/C=C/C(=O)/C=C(O)/C=C/c2ccc(OC)c(OC)c2OC)cc1OC` [LL-35], the “anti-AR activity, LNCaP” value [4] was 0.

With `COc1cc(OC)c(OC)cc1/C=C/C(O)=C/C(=O)/C=C/c1ccc(OC)c(OC)c1` [LL-36] the “anti-AR activity, LNCaP” value [4] was 0.

In the case of `COc1ccc(/C=C/C(=O)CC(O)/C=C/c2ccc(OC)c(OC)c2)cc1OC` (centres unmarked) [LL-55], the “anti-AR activity, wrAR/PC3” value [5] is reported as 0.

`COc1ccc(/C=C/C(=O)C(C)(F)C(=O)/C=C/c2ccc(OC)c(OC)c2)cc1OC` [LL-62] was tested, and the “anti-AR activity, wrAR/PC3” value [5] was 0.

With `CCOC(=O)/C=C/C(C(=O)/C=C/c1ccc(O)c(OC)c1)=C(O)\C=C\c1ccc(O)c(OC)c1` [LL-66] the “anti-AR activity, wrAR/PC3” value [5] was 0.
